From publication PMC10534214 (Food Chemistry: X, 2023)

Target: T1, SaDHPS (Staphylococcus aureus, UniProt O05701, R204H/P216R)
T1 construct: gene folP
Details: read-out: SaDHPS + SIZ-2FITC / IC50 (ng/mL); tracer SIZ-2FITC; 4 mM DHPPP, 40 mM Mg2+ in reaction buffer, pH 8.0, 37 C, 2 min

With `NS(=O)(=O)c1ccccc1` [BSN] the IC50 was 55.1 nM.
